The target in this test is T1, glucocorticoid receptor (Homo sapiens, UniProt P04150).
T1 construct: containing 50-200 ug of A549 cell extract and 1.86 nM [^3H]-dexamethasone; host or cells: A549 human lung epithelial cells (sonicated cell extract)
T1 sequence (P04150 1-777): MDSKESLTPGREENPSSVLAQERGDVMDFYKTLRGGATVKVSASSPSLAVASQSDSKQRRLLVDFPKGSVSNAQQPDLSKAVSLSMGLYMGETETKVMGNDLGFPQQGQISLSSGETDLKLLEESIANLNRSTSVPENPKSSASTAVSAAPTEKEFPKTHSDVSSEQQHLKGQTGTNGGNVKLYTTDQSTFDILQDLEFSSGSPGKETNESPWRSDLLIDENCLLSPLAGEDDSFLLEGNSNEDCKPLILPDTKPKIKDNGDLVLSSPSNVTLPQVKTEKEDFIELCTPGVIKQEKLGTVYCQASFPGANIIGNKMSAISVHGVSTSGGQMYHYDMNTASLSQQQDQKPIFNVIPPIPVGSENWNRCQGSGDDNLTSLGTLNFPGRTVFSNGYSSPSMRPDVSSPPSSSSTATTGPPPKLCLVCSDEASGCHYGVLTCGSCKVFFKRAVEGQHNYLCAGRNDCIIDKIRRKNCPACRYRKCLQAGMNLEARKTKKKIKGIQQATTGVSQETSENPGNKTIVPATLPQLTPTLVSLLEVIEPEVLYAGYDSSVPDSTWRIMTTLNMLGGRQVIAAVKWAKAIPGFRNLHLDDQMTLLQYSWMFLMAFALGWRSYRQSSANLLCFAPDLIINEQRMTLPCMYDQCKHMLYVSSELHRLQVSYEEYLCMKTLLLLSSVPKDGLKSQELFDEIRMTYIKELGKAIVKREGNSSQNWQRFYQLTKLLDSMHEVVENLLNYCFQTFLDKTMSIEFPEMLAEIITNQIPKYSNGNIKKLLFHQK
In words: Glucocorticoid Receptor Binding Assay ([3H]-dexamethasone, A549 cell extract). As to conditions: [3H]-dexamethasone binding, read-out: GR Ki. The protocol: All ligands, radioligands, solvents, and reagents employed in the binding assays are readily available from commercial sources, or can be readily synthesized by the ordinarily skilled artisan.
A549 human lung epithelial cells (ATCC) are grown at a scale where gram quantity cell pellets are obtained. Harvested cell pellets are washed twice in cold phosphate buffered saline, centrifuged, and resuspended in cold assay binding buffer. The assay binding buffer consists of 10% glycerol, 50 mM Tris-HCl (pH7.2), 75 mM sodium chloride, 1.5 mM magnesium chloride, 1.5 mM EDTA, and 10 mM sodium molybdate. Cell suspensions were lysed via sonication, centrifuged, and the “extract” supernatant is snap frozen and stored at −80 C until needed.
GR binding assays are performed in a final volume of 140 ul containing 50-200 ug of A549 cell extract and 1.86 nM [^3H]-dexamethasone (Amersham) plus varying concentrations of test compound or vehicle. Briefly, assays are prepared at RT in 96-well Fisher 3356 plates, each well containing 100 ul of A549 cell extract, 20 ul of [^3H]-dexamethasone, and 20 ul of test compound/vehicle. Incubations are carried out at 4 degrees Celsius for 16 hours. After incubation, 70 ul of 3× dextran-coated charcoal solution is added to each reaction, mixed, and incubated for 8 minutes at RT. 3×-dextran-coated charcoal solution consists of 250 ml assay binding buffer, 3.75 g Norit A charcoal (Sigma), and 1.25 g dextran T-70 (Amersham). Charcoal/unbound radioligand complexes are removed by centrifugation of the plate and 140 ul of supernatant from each well is transferred to another 96 well Optiplate (Packard Instruments). 200 ul of Microscint-20 scinillant (Packard Instruments) is added to each well and amount of receptor bound radioligand is determined using Packard Instruments TopCount instrument.

Structures are written as SMILES.

Broadly, the Ki is a dissociation constant, usually derived from enzyme kinetics or from competition with a known ligand.

Take `CS(=O)(=O)Nc1cccc(/C=C2\c3ccccc3CCc3ccc(S(C)(=O)=O)cc32)c1` [Example 324]: the Ki was < 1000 nM.

Regarding `CS(=O)(=O)Nc1cccc(C(C(=O)O)=C2c3ccccc3CCc3ccccc32)c1` [Example 754, (10,11-Dihydro-dibenzo[a,d]cyclohepten-5-ylidene)-(3-methanesulfonylamino-phenyl)-acetic acid], the Ki was < 500 nM.

On to `O=[N+]([O-])c1cccc(/C=C2/c3ccccc3OCc3c(Cl)cccc32)c1` [Example 272, 7-Chloro-11-(3-nitro-benzylidene)-6,11-dihydro-dibenzo[b,e]oxepine], for which the Ki is < 10000 nM.

On to `O=S(=O)(Nc1cccc(/C=C2\c3ccccc3CSc3ccccc32)c1)c1ccc(Cl)c(Cl)c1` [Example 690], for which the Ki is < 1000 nM.

For `O=c1[nH]c2ccc(/C=C3/c4ccccc4COc4cc(F)ccc43)cc2[nH]1` [Example 631], the Ki is < 1000 nM.

For the compound `CCOc1ccc2c(c1)CCc1ccccc1C2=Cc1cccc(NS(C)(=O)=O)c1` [Example 331], the Ki was < 500 nM.

Regarding `CCNC(=O)Nc1cccc(C=C2c3ccccc3CSc3c(C)cccc32)c1` [Example 689], the inhibitory constant (Ki) is < 500 nM.

As for `CCCOc1ccc2c(c1)CCc1ccccc1C2=Cc1cccc(NS(C)(=O)=O)c1` [Example 332], the inhibition constant (Ki) was < 500 nM.

As for `COc1cccc2c1SCc1ccccc1C2=Cc1cccc(NS(C)(=O)=O)c1` [Example 686], the inhibition constant Ki was < 500 nM.

Values taken from patent US20060063759A1, “Tricyclic steroid hormone nuclear receptor modulators” (priority 2002, published 2006).
